Measured values reported in PubChem BioAssay AID2060510 (Molecular Pharmacology Branch, DTP, NCI, 2025).
Values joined by “and” are separate entries in the source; they are usually repeats but may differ in a detail not shown here. Equal values may be shown once.

Test system: 439559-082-T-J2-PDC spheroids viability
Assay: Anticancer human tumor 439559-082-T-J2-PDC patient-derived colon adenocarcinoma cell line growth inhibition [GQUAD]
Conditions: for viability, T/C: stronger effect = lower value
Text: DNA G-quadruplex Stabilizer Agents in Combinations in Complex Spheroids
A high-throughput screen of multi-cell type tumor spheroids was designed to identify active combinations of DNA G-quadruplex stabilizer agents and targeted small molecules. Complex spheroids include a stromal component modeled by human endothelial cells (HUVEC) and fibroblasts modeled by human mesenchymal stem cells (MSCs). The concentration ranges selected for each drug and investigational agent were based upon clinically achievable concentrations if the clinical Cmax of the agent was known.
Compounds. The drugs and investigational agents: pidnarulex (CX-5461; NSC782164), APTO-253 (NSC789042), BRACO-19 (NSC847499), peposertib (NSC802822), ceralasertib (NSC780249), elimusertib (NSC800525), camonsertib (NSC841442), AZD-1390 (NSC803789), olaparib (NSC753686), talazoparib (NSC767125), ART-558 (NSC835418), sotorasib (NSC818433), MRTX-1133 (NSC836407), SN-38 (NSC673596), topotecan (NSC609699), etoposide (NSC141540), doxorubicin (NSC123127), gemcitabine (NSC613327), 5-fluorouracil (NSC19893), paclitaxel (NSC125973), vemurafenib (NSC761431), panobinostat (NSC761190), R-306465 (JNJ-16241199; NSC773264), adavosertib (NSC754352), TP-3654 (NSC805149), carboplatin (NSC241240), KSQ-4279 (NSC840948), and staurosporine (NSC755774) were obtained from the National Cancer Institute (NCI) Developmental Therapeutics Program Chemical Repository (34). The FDA-approved anticancer drug set is available from the NCI Developmental Therapeutics Program. […] The stock solutions were prepared in dimethyl sulfoxide (DMSO, Sigma-Aldrich, St. Louis, MO, cat. D2650) at 800-fold the tested concentration and stored at -70 degrees C prior to their use. All drugs and investigational agents were tested over a range starting from a high concentration at or near the clinical Cmax and decreasing in half-log increments. If the clinical Cmax for an agent had not been determined, the highest concentration tested was 10 microM.
2.3 Cell Culture. All cells were maintained in an incubator at 37 degrees C and 5% CO2 with 95% humidity. The PDC lines were cultured according to standard operating procedures established by the NCI PDMR. All PDCs were thawed and cultured in Matrigel-coated flasks prepared with a working solution of 1X Ham's F-12 nutrient mix, without supplementation (Invitrogen, cat. 11765054), 100 U/mL penicillin-streptomycin (Invitrogen, cat. 15140122), and 2.5% Matrigel (Corning Inc., cat. 354248) for the first three passages. The 857933-349-R-J2-PDC line was cultured in 6C/Colon 1B media, which includes advanced DMEM/F-12 (Thermo Fisher Scientific, cat. 12634028), 10 mM HEPES (Thermo Fisher Scientific, cat. 15630080), 1X GlutaMAX supplement (Thermo Fisher Scientific, cat. 35050061), 0.1 mg/mL primocin (InvivoGen, cat. ant-pm-2), 10% defined fetal bovine serum, heat inactivated (HyClone Laboratories Inc., cat. SH30070.03HI), 50% L-WRN conditioned media (ATCC, cat. CRL-3276), 1.25 mM N-Acetyl-L-cysteine (Sigma-Aldrich, cat. A9165), 10 mM nicotinamide (Sigma-Aldrich, cat. N0636), 1X B-27 supplement (Thermo Fisher Scientific, cat. 17504044), 1X N-2 supplement (Thermo Fisher Scientific, cat. 17502048), 10 microM Y-27632 dihydrochloride (Tocris Bioscience, cat. 1254), and 50 ng/mL human EGF recombinant protein (Thermo Fisher Scientific, cat. PHG0311). The 485176-168-R4-J1-PDC line was cultured in Panc media, which includes all 6C/Colon 1B media components plus 100 ng/mL human FGF-10 (Thermo Fisher Scientific, cat. 100-26), 500 nM SB-431542 (Selleckchem, cat. S1067), and gastrin (Tocris, cat. 3006).
[…]
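Note: spheroids exposed to the agents for 7 days before readout.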
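Throughout, for viability, T/C: percent of luminescence signal in DMSO vehicle wells taken as 100% viability.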

Question: How did the viability, T/C (compound 0.0316 µM) turn out when `COc1cc(C2c3cc4c(cc3C(OC3OC5COC(C)OC5C(O)C3O)C3COC(=O)C23)OCO4)cc(OC)c1O` (configuration not stated) was run?
Answer: 96.1% and 96% and 96.2%

Question: And the viability, T/C (compound 0.1 µM)?
Answer: 93% and 81.9% and 90.7%

Question: What about the viability, T/C (compound 0.316 µM) of the same compound?
Answer: 92.8% and 94.6% and 101%

Question: And the viability, T/C (compound 1 µM)?
Answer: 98.3% and 89.7% and 95%

Question: What about the viability, T/C (compound 3.16 µM) of the same compound?
Answer: 90.2% and 80.1% and 81.5%

Question: What about the viability, T/C (compound 10 µM) of the same compound?
Answer: 62.3% and 61% and 68.8%

Question: What about the IC50 (curve of compound) of the same compound?
Answer: > 10 µM

Question: For `CC[C@@]1(O)C(=O)OCc2c1cc1n(c2=O)Cc2cc3c(CN(C)C)c(O)ccc3nc2-1`, which viability, T/C (compound 0.000999 µM) is on record?
Answer: 95.3% and 92.3% and 106%

Question: And the viability, T/C (compound 0.00316 µM)?
Answer: 105% and 96.2% and 94.6%

Question: What about the viability, T/C (compound 0.00999 µM) of the same compound?
Answer: 96% and 97.9% and 95.6%

Question: What about the viability, T/C (compound 0.0316 µM) of the same compound?
Answer: 84.6% and 98% and 89.7%

Question: And the viability, T/C (compound 0.0999 µM)?
Answer: 88.7% and 87.6% and 101%

Question: And the viability, T/C (compound 0.316 µM)?
Answer: 79% and 81.7% and 75.3%

Question: What about the IC50 (curve of compound) of the same compound?
Answer: > 0.316 µM

Question: Which results are given for `CC(C)(O)C1CCC(Nc2ccc3ncc(-c4cccc(C(F)(F)F)c4)n3n2)CC1` (configuration not stated) + Cc1[nH]c2ccc(F)cc2c1-c1nc2c3cccnc3c3ncccc3c2[nH]1?
Answer: IC50 (curve of first compound, second compound 0.0316 µM): > 10 µM; IC50 (curve of first compound, second compound 0.1 µM): 7.93 µM; IC50 (curve of first compound, second compound 0.316 µM): > 10 µM; IC50 (curve of first compound, second compound 1 µM): 6.31 µM; IC50 (curve of first compound, second compound 3.16 µM): 3.21 µM; IC50 (curve of first compound, second compound 10 µM): 1.23 µM; viability, T/C (second compound 0.0316 µM, first compound 0.0316 µM): 99.4%; viability, T/C (second compound 0.0316 µM, first compound 0.1 µM): 85.6%; viability, T/C (second compound 0.0316 µM, first compound 0.316 µM): 70.6%; viability, T/C (second compound 0.0316 µM, first compound 1 µM): 66%; viability, T/C (second compound 0.0316 µM, first compound 3.16 µM): 58.8%; viability, T/C (second compound 0.0316 µM, first compound 10 µM): 48.6%; viability, T/C (second compound 0.1 µM, first compound 0.0316 µM): 102%; viability, T/C (second compound 0.1 µM, first compound 0.1 µM): 78%; viability, T/C (second compound 0.1 µM, first compound 0.316 µM): 77.9%; viability, T/C (second compound 0.1 µM, first compound 1 µM): 58.8%; viability, T/C (second compound 0.1 µM, first compound 3.16 µM): 66.2%; viability, T/C (second compound 0.1 µM, first compound 10 µM): 42.9%; viability, T/C (second compound 0.316 µM, first compound 0.0316 µM): 86.3%; viability, T/C (second compound 0.316 µM, first compound 0.1 µM): 76.6%; viability, T/C (second compound 0.316 µM, first compound 0.316 µM): 62.4%; viability, T/C (second compound 0.316 µM, first compound 1 µM): 61.9%; viability, T/C (second compound 0.316 µM, first compound 3.16 µM): 53.6%; viability, T/C (second compound 0.316 µM, first compound 10 µM): 50.1%; viability, T/C (second compound 1 µM, first compound 0.0316 µM): 87.1%; viability, T/C (second compound 1 µM, first compound 0.1 µM): 69.1%; viability, T/C (second compound 1 µM, first compound 0.316 µM): 76.4%; viability, T/C (second compound 1 µM, first compound 1 µM): 66.3%; viability, T/C (second compound 1 µM, first compound 3.16 µM): 61.4%; viability, T/C (second compound 1 µM, first compound 10 µM): 42.5%; viability, T/C (second compound 3.16 µM, first compound 0.0316 µM): 77.8%; viability, T/C (second compound 3.16 µM, first compound 0.1 µM): 73%; viability, T/C (second compound 3.16 µM, first compound 0.316 µM): 62.3%; viability, T/C (second compound 3.16 µM, first compound 1 µM): 51.3%; viability, T/C (second compound 3.16 µM, first compound 3.16 µM): 57.7%; viability, T/C (second compound 3.16 µM, first compound 10 µM): 41.1%; viability, T/C (second compound 10 µM, first compound 0.0316 µM): 75.8%; viability, T/C (second compound 10 µM, first compound 0.1 µM): 73%; viability, T/C (second compound 10 µM, first compound 0.316 µM): 63.4%; viability, T/C (second compound 10 µM, first compound 1 µM): 50.6%; viability, T/C (second compound 10 µM, first compound 3.16 µM): 44.5%; viability, T/C (second compound 10 µM, first compound 10 µM): 38.2%

Question: What does the source list for `Cc1[nH]c2ccccc2c1CCNCc1ccc(/C=C/C(=O)NO)cc1`?
Answer: viability, T/C (compound 0.000999 µM): 105% and 91.6% and 99.8%; viability, T/C (compound 0.00316 µM): 94.6% and 105% and 93.3%; viability, T/C (compound 0.00999 µM): 91.2% and 92.3% and 95.4%; viability, T/C (compound 0.0316 µM): 112% and 84.7% and 91.9%; viability, T/C (compound 0.0999 µM): 110% and 81.7% and 79%; viability, T/C (compound 0.316 µM): 101% and 63.2% and 61.6%; IC50 (curve of compound): > 0.316 µM

Question: Which viability, T/C (compound 0.0316 µM) does the source give for `COc1ncnc(C2CC2)c1-c1ncc2cnn(Cc3ccc(-c4nc(C(F)(F)F)cn4C(C)C)cc3)c2n1` here?
Answer: 100% and 106% and 101%

Question: And the viability, T/C (compound 0.1 µM)?
Answer: 101% and 109% and 97.2%

Question: What about the viability, T/C (compound 0.316 µM) of the same compound?
Answer: 100% and 90.9% and 94.3%

Question: And the viability, T/C (compound 1 µM)?
Answer: 104% and 89% and 94.3%

Question: What about the viability, T/C (compound 3.16 µM) of the same compound?
Answer: 98.7% and 81.9% and 104%

Question: And the viability, T/C (compound 10 µM)?
Answer: 98.1% and 57.4% and 89.5%

Question: What about the IC50 (curve of compound) of the same compound?
Answer: > 10 µM

Question: With `Nc1ccn(C2OC(CO)C(O)C2(F)F)c(=O)n1` (configuration not stated) as the compound, how does the viability, T/C (compound 0.0316 µM) read?
Answer: 83.6% and 83.2% and 89.5%

Question: What about the viability, T/C (compound 0.1 µM) of the same compound?
Answer: 74.3% and 67.4% and 60.4%

Question: And the viability, T/C (compound 0.316 µM)?
Answer: 53.7% and 46.2% and 49.7%

Question: And the viability, T/C (compound 1 µM)?
Answer: 38.5% and 30.7% and 32.6%

Question: And the viability, T/C (compound 3.16 µM)?
Answer: 28.2% and 25.8% and 28.4%

Question: And the viability, T/C (compound 10 µM)?
Answer: 22.9% and 26.9% and 23.2%

Question: And the IC50 (curve of compound)?
Answer: 0.444 µM and 0.249 µM and 0.24 µM
